Data taken from patent publication US12507703B2, “Methods, devices and compositions for preserving human milk” (The Trustees of Princeton University, priority 2023, dated 2025).
Values joined by “and” are separate entries in the source; they are usually repeats but may differ in a detail not shown here. Identical values can stand only once. Like-named read-outs stand apart in the source and are kept apart here. Where a SMILES comes first, the peptide text is derived from it.

Tested on: lipase
Test: Lipase/lipolysis assay (EnzChek Lipase Substrate, quenched BODIPY-fatty acid conjugate) on stored human milk; as to Lipase (RFU): test concentration or dose not given here

SMILES | Lipase (RFU) | also measured
C=C(CC(=O)O)C(=O)O [Itaconic Acid] | 944.0433 RFU | 
COc1cc(-c2cc(=O)c3c(O)c(OC)c(O)cc3o2)ccc1O [Jaceosidin] | 614.7008 RFU | 
CC(C)=C[C@H]1C[C@](C)(O)[C@@H]2[C@H]3CC[C@@H]4[C@@]5(C)CC[C@H](O[C@@H]6OC[C@H](O)[C@H](O[C@@H]7O[C@H](CO)[C@@H](O)[C@H](O)[C@H]7O[C@@H]7OC[C@@H](O)[C@H](O)[C@H]7O)[C@H]6O[C@@H]6O[C@@H](C)[C@H](O)[C@@H](O)[C@H]6O)C(C)(C)[C@@H]5CC[C@@]4(C)[C@@]34CO[C@@]2(C4)O1 [Jujuboside B] | 877.6814 RFU | 
O=c1c(O[C@@H]2O[C@H](CO[C@@H]3O[C@H](CO)[C@@H](O)[C@H](O)[C@H]3O)[C@@H](O)[C@H](O)[C@H]2O)c(-c2ccc(O)cc2)oc2cc(O)cc(O)c12 [Kaempferol 3-O-gentiobioside] | 1150.858 RFU | 
O=c1c(O[C@@H]2O[C@H](CO)[C@@H](O)[C@H](O)[C@H]2O[C@@H]2O[C@H](CO)[C@@H](O)[C@H](O)[C@H]2O)c(-c2ccc(O)cc2)oc2cc(O)cc(O)c12 [Kaempferol 3-O-sophoroside] | 867.3846 RFU | 
O=C(O)[C@H]1O[C@@H](Oc2c(-c3ccc(O)cc3)oc3cc(O)cc(O)c3c2=O)[C@H](O)[C@@H](O)[C@@H]1O [Kaempferol 3-O-β-D-glucuronide] | 1023.998 RFU | 
C[C@@H]1O[C@@H](O[C@H]2[C@H](Oc3c(-c4ccc(O)cc4)oc4cc(O)cc(O)c4c3=O)O[C@H](CO)[C@@H](O)[C@@H]2O)[C@H](O)[C@H](O)[C@H]1O [Kaempferol 3-neohesperidoside] | 1019.446 RFU | 
C[C@@H]1O[C@@H](Oc2cc(O)c3c(=O)c(O)c(-c4ccc(O)cc4)oc3c2)[C@H](O)[C@H](O)[C@H]1O [Kaempferol-7-O-rhamnoside] | 963.8327 RFU | 
C[C@@]12C=Cc3occc3[C@H]1CC[C@@]13C[C@@H](CC[C@H]12)[C@@](O)(CO)C3 [Kahweol] | 608.7131 RFU | 
CC1=CC(=O)CC(C)(C)C1=O [Ketoisophorone] | 818.3204 RFU and 1086.358 RFU | 
OC[C@H]1O[C@@H](Oc2cc3c(O)cc(O)cc3[o+]c2-c2ccc(O)c(O)c2)[C@H](O)[C@@H](O)[C@@H]1O.[Cl-] [Kuromanin (chloride)] | 1192.7 RFU | 
NC(N)=NCCC[C@H](NC(=O)[C@@H](N)Cc1ccc(O)cc1)C(=O)O [Kyotorphin] | 988.5967 RFU | 
C[C@H](N)C(=O)NCC(=O)O [L-Alanyl-Glycine] (H-Ala-Gly-OH) | 816.3246 RFU | 
OC[C@H](O)C(O)[C@@H](O)CO [L-Arabitol] | 912.8862 RFU | 
Cl.N=C(N)NCCC[C@H](N)C(=O)O [L-Arginine (hydrochloride)] | 1273.102 RFU | 
N=C(N)NCCC[C@H](N)C(=O)O [L-Arginine] | 753.4686 RFU and 980.9809 RFU and 913.1858 RFU | 
N[C@@H](CC(=O)O)C(=O)[O-].[Na+] [L-Aspartic aicd (sodium)] | 708.7772 RFU and 1026.622 RFU | 
O=C(O)[C@@H]1CCN1 [L-Azetidine-2-carboxylic acid] | 953.3787 RFU | 
N=C(N)NOCC[C@H](N)C(=O)O.O=S(=O)(O)O [L-Canavanine sulfate] | 903.0256 RFU | 
O=C(/C=C/c1ccc(O)c(O)c1)O[C@H](C(=O)O)[C@H](OC(=O)/C=C/c1ccc(O)c(O)c1)C(=O)O [L-Chicoric Acid] | 1257.708 RFU | 
NC(=O)NCCC[C@H](N)C(=O)O [L-Citrulline] | 1167.04 RFU and 809.9531 RFU | 
Cl.N[C@@H](CS)C(=O)O [L-Cysteine (hydrochloride)] |  | Lipase (RFU) ((hydrochloride)): 936.4597 RFU and 1023.471 RFU
N[C@@H](CS(=O)O)C(=O)O [L-Cysteine Sulfinic Acid] | 845.2477 RFU | 

SMILES | Lipase (RFU) | also measured
N[C@@H](CS(=O)O)C(=O)O [L-Cysteinesulfinic acid] | 867.5137 RFU | 
N[C@@H](CS)C(=O)NCC(=O)O [L-Cysteinyl-Glycine] | 708.9877 RFU | 
NCC[C@H](N)C(=O)O [L-DABA] | 650.1144 RFU | 
O=C1C[C@@H](C(=O)O)NC(=O)N1 [L-Dihydroorotic acid] | 1002.656 RFU | 
N[C@@H](CSCSC[C@H](N)C(=O)O)C(=O)O [L-Djenkolic Acid] | 317.7642 RFU | Hit in lipase inhibition screen (in words): significantly inhibited lipase activity
N[C@@H](CCC(=O)O)C(=O)O [L-Glutamic Acid] | 1101.527 RFU and 821.1812 RFU | 
O=C([O-])[C@@H](O)CO.[Na+] [L-Glyceric acid (sodium)] | 822.8712 RFU | 
O=C1O[C@H]([C@@H](O)CO)[C@H](O)[C@@H]1O [L-Gulono-1,4-lactone] | 1139.877 RFU | 
CCCCCC(=O)O[C@H](CC(=O)[O-])C[N+](C)(C)C [L-Hexanoylcarnitine] | 948.6206 RFU | 
NC(=O)NCCCC[C@H](N)C(=O)O [L-Homocitrulline] | 822.9997 RFU | 
N[C@H]1CCOC1=O [L-Homoserine Lactone] | 1108.032 RFU | 
Nc1ccccc1C(=O)C[C@H](N)C(=O)O [L-Kynurenine] | 761.0277 RFU | 
Cl.NCCCC[C@H](N)C(=O)O [L-Lysine hydrochloride] |  | Lipase (RFU) ((hydrochloride)): 1184.747 RFU and 890.5892 RFU
NCCCC[C@H](N)C(=O)O [L-Lysine] | 909.5913 RFU and 1084.77 RFU and 881.5409 RFU and 1310.906 RFU | 
O=C(O)C[C@H](O)C(=O)O [L-Malic Acid] | 1144.049 RFU | 
CS(=O)(=O)CC[C@H](N)C(=O)O [L-Methionine Sulfone] | 897.1863 RFU | 
CCCCCCCC(=O)O[C@H](CC(=O)[O-])C[N+](C)(C)C [L-Octanoylcarnitine] | 1071.191 RFU | 
O=C(CO)[C@@H](O)[C@H](O)[C@@H](O)CO [L-Sorbose] | 1197.031 RFU | 
N[C@@H](Cc1c[nH]c2ccccc12)C(=O)O [L-Tryptophan] | 1074.461 RFU and 1239.076 RFU | 
CC(O)C(=O)[O-].CC(O)C(=O)[O-].[Ca+2] (stereo not shown) [Lactate (calcium)] | 763.893 RFU | 
OC[C@H]1O[C@@H](O[C@H]2[C@H](O)[C@@H](O)[C@@H](O)O[C@@H]2CO)[C@H](O)[C@@H](O)[C@H]1O [Lactose] | 912.5223 RFU | 
C=C1C(=O)O[C@@H]2[C@H]3C(CO)=CC(=O)C3=C(C)C[C@H](OC(=O)Cc3ccc(O)cc3)[C@@H]12 [Lactupicrin] | 995.7975 RFU | 
CC(C)CCC[C@@H](C)[C@H]1CC[C@H]2C3=CC[C@H]4C[C@@H](O)CC[C@]4(C)[C@H]3CC[C@]12C [Lathosterol] | 1017.106 RFU | 

SMILES | Lipase (RFU) | also measured
Oc1cc(O)c2c(c1)OC(c1ccc(O)c(O)c1)C(O)C2O (stereo not shown) [Leucocyanidin] | 957.6226 RFU | 
C=CC(C)(CCC=C(C)C)OC(C)=O (stereo not shown) [Linalyl acetate] | 753.0162 RFU and 717.2876 RFU | 
COc1ccc(-c2cc(=O)c3c(O)cc(O[C@@H]4O[C@H](CO[C@@H]5O[C@@H](C)[C@H](O)[C@@H](O)[C@H]5O)[C@@H](O)[C@H](O)[C@H]4O)cc3o2)cc1 [Linarin] | 989.9197 RFU | 
CCCCC/C=C/C/C=C/CCCCCCCC(=O)O [Linolelaidic acid] | 831.2921 RFU | 
O=C(O)CCCCC1CCSS1 (stereo not shown) [Lipoic acid] | 1146.052 RFU | 
CC(C)=CCc1c(O)cc(O)c2c(=O)c(-c3ccc(O)cc3)coc12 [Lupiwighteone] | 1206.447 RFU | 
O=C(O)[C@H]1O[C@@H](Oc2cc(O)c3c(=O)cc(-c4ccc(O)c(O)c4)oc3c2)[C@H](O)[C@@H](O)[C@@H]1O [Luteolin 7-O-glucuronide] | 995.7867 RFU | 
Oc1cc(O)c2ccc(-c3ccc(O)c(O)c3)[o+]c2c1.[Cl-] [Luteolinidin (chloride)] | 933.7809 RFU | 
CCCCCCCCCCCCCC(=O)OC[C@@H](O)COP(=O)([O-])OCC[N+](C)(C)C [LysoPC(14:0/0:0)] | 1043.126 RFU | 
COc1cc(C[C@H](C)[C@H](C)Cc2ccc3c(c2)OCO3)ccc1O [Macelignan] | 621.9317 RFU | 
C=CCc1ccc(O)c(-c2cc(CC=C)ccc2O)c1 [Magnolol] | 941.9616 RFU | 
OC[C@@H](O)[C@@H](O[C@H]1O[C@H](CO)[C@@H](O)[C@H](O)[C@H]1O)[C@H](O)[C@@H](O)CO [Maltitol] | 943.5543 RFU | 
C=C[C@](C)(O)CC[C@H]1C(=C)CC[C@H]2C(C)(C)CCC[C@]12C [Manool] | 923.6944 RFU | 
CC1(C)CC[C@]2(C(=O)O)CC[C@]3(C)C(=CC[C@@H]4[C@@]5(C)C[C@@H](O)[C@H](O)C(C)(C)[C@@H]5CC[C@]43C)[C@@H]2C1 [Maslinic acid] | 1120.923 RFU | 
CC1O[C@@H](OC[C@H]2O[C@@H](Oc3c(-c4ccc(O)cc4)oc4cc(O)cc(O)c4c3=O)C(O[C@@H]3O[C@H](C)[C@H](O)C(O)C3O)C(O)[C@H]2O)C(O)[C@@H](O)[C@H]1O (stereo partly shown) [Mauritianin] | 860.4015 RFU | 
CNC(C)(C)C(=O)O [MeAIB] | 1061.964 RFU | 
CC1(C)CC[C@]2(C(=O)O)CC[C@]3(C)C(=CC[C@@H]4[C@@]5(C)C[C@H](O)[C@H](O)[C@@](C)(C(=O)O)[C@@H]5CC[C@]43C)[C@@H]2C1 [Medicagenic acid] | 975.8957 RFU | 
O=C(O)[C@H](O)[C@@H](O)[C@H](O)[C@H](O)CO[C@H]1O[C@H](CO)[C@H](O)[C@H](O)[C@H]1O [Melibionic Acid] | 917.5297 RFU | 
O=c1cc(-c2ccc(O)cc2)oc2cc(O)c([C@@H]3O[C@H](CO)[C@@H](O)[C@H](O)[C@H]3O[C@@H]3O[C@H](CO)[C@@H](O)[C@H](O)[C@H]3O)c(O)c12 [Meloside A] | 811.3753 RFU | 
CC(C)=CCC/C(C)=C/CC/C(C)=C/CC/C(C)=C/CC1=C(C)C(=O)c2ccccc2C1=O [Menaquinone-4] | 987.2266 RFU | 
COC(=O)c1ccc(OC)cc1 [Methyl anisate] | 1101.708 RFU and 911.2014 RFU | 
COC(=O)c1cccnc1 [Methyl nicotinate] | 1069.07 RFU and 773.2703 RFU | 
COC(=O)[C@]12CCC(C)(C)C[C@H]1C1=CC[C@@H]3[C@@]4(C)CCC(=O)C(C)(C)[C@@H]4CC[C@@]3(C)[C@]1(C)CC2 [Methyl oleanonate] | 912.7431 RFU | 
